Values of other authors as cited in US20090239822A1, “Process for the preparation of esters of diacerein with hyaluronic acid and pharmaceutical compositions containing such esters” (priority 2006, published 2009).

Details: rhein from the pro-drug diacerein

concentration in the synovial liquid: 1 to 10 µM
SMILES: O=C(O)c1cc(O)c2c(c1)C(=O)c1cccc(O)c1C2=O [rhein]
